Source: patent publication US20050256174A1, “Raf kinase inhibitors” (priority 1998, published 2005)

SMILES	melting point [°C]
COC(=O)c1sc(C(C)C)cc1NC(=O)Nc1ccc(C)cc1 [Example 1, 5-Isopropyl-3-(3-p-tolyl-ureido)-thiophene-2-carboxylic acid methyl ester]	93 to 95
COC(=O)c1cc(C(C)(C)C)sc1NC(=O)Nc1ccc(C)cc1 [Example 26, 5-tert-Butyl-2-(3-p-tolyl-ureido)-thiophene-3-carboxylic acid methyl ester]	109 to 111
COC(=O)c1cc(C(C)C)sc1NC(=O)Nc1ccc(C)s1 [Example 30, 5-Isopropyl-2-[3-(5-methyl-thiophen-2-yl)-ureido]-thiophene-3-carboxylic acid methyl ester]	70 to 73

Second part, the compound after the results:

melting point [°C]	SMILES
80 to 82	COC(=O)c1cc(C(C)(C)C)sc1NC(=O)Nc1ccccc1 [Example 27, 5-tert-Butyl-2-(3-phenyl-ureido)-thiophene-3-carboxylic acid methyl ester]
206 to 208	CCc1nnc(NC(=O)Nc2sc(C(C)(C)C)cc2C(=O)OC)s1 [Example 28, 5-tert-Butyl-2-(3-(5-ethyl-[1,3,4]thiadiazol-2-yl)-ureido)-thiophene-3-carboxylic acid methyl ester]
49 to 51	COC(=O)c1cc(C(C)C)sc1NC(=O)Nc1ccc(C)cc1 [Example 29, 5-Isopropyl-2-(3-p-tolyl-ureido)-thiophene-3-carboxylic acid methyl ester]
